This is an account of results in patent US12409171B2, “Pharmaceutically active pyrazolo-pyridone modulators of DCN1/2-mediated cullin neddylation” (UNIVERSITY OF KENTUCKY RESEARCH FOUNDATION, priority 2019, dated 2025).

Usually EC50 stands for the concentration giving half of the maximal effect.

In one assay the target is T1, DCN1 (Homo sapiens (Human), UniProt Q96GG9). The assay can be described thus: TR-FRET binding assay (biotin-DCN1 / Ac-UBE2M12-AlexaFluor488). To be noted: mean ± SD (n); read-out: DCN1_TRFRET Mean EC50. The procedure, abridged: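 Biotinylated DCN1 binding to Ac-UBE2M12-AlexaFluor488 read by TR-FRET; assay cocktail pre-incubated 1 h at room temperature before compounds added from DMSO stocks by pin transfer. IC50 is the mean of three replicates ± SD; compounds tested in triplicate or more.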
T1 sequence (Q96GG9 whole entry): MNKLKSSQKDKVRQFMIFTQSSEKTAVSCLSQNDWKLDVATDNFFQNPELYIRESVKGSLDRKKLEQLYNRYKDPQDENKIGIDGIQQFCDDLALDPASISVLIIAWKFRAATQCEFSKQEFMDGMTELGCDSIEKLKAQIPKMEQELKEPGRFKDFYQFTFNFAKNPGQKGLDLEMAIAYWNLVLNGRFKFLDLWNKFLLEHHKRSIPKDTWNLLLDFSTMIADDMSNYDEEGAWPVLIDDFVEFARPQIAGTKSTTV
On the technique in general: In TR-FRET formats the signal depends on donor and acceptor labels being close together.
`CCN1C(=O)[C@@H](NC(=O)c2cccc(C(F)(F)F)c2)[C@@H](c2ccc(F)cc2)c2c(CN3CCC(F)(F)CC3)nn(-c3ccccc3)c21` [RG-0014146, N-[(4S,5S)-3-[(4,4-difluoropiperidin-1-yl)methyl]-7-ethyl-4-(4-fluorophenyl)-6-oxo-1-phenyl-1H,4H,5H,6H,7H-pyrazolo[3,4-b]pyridin-5-yl]-3-(trifluoromethyl)benzamide]: the EC50 was found to be 321 ± 27.3 nM.

Consider `CCN1C(=O)[C@@H](NC(=O)c2cccc(C(F)(F)F)c2)[C@@H](c2ccc(F)cc2)c2c(CN3CCC(F)CC3)nn(-c3ccccc3)c21` [RG-0014147, N-[(4S,5S)-7-ethyl-4-(4-fluorophenyl)-3-[(4-fluoropiperidin-1-yl)methyl]-6-oxo-1-phenyl-1H,4H,5H,6H,7H-pyrazolo[3,4-b]pyridin-5-yl]-3-(trifluoromethyl)benzamide], for which the EC50 stood at 112 ± 16 nM.

On to `CCN1C(=O)[C@@H](NC(=O)c2cccc(C(F)(F)F)c2)[C@@H](c2ccc(F)cc2)c2c(CNC(=O)CCOCCOCCOCCOCCNC(=O)CCCCC3SCC4NC(=O)NC43)nn(-c3ccccc3)c21` (stereo partly drawn) [RG-0014148, N-{[(4S,5S)-7-ethyl-4-(4-fluorophenyl)-6-oxo-1-phenyl-5-[3-(trifluoromethyl)benzamido]-1H,4H,5H,6H,7H-pyrazolo[3,4-b]pyridin-3-yl]methyl}-1-(5-{2-oxo-hexahydro-1H-thieno[3,4-d]imidazol-4-yl}pentanamido)-3,6,9,12-tetraoxapentadecan-15-amide], for which the EC50 was found to be 102 ± 15.9 nM.

On to `CCN1C(=O)[C@@H](NC(=O)c2cccc(C(F)(F)F)c2)[C@@H](c2ccc(F)cc2)c2c(CNCCN)nn(-c3ccccc3)c21` [RG-0014149, N-[(4S,5S)-3-{[(2-aminoethyl)amino]methyl}-7-ethyl-4-(4-fluorophenyl)-6-oxo-1-phenyl-1H,4H,5H,6H,7H-pyrazolo[3,4-b]pyridin-5-yl]-3-(trifluoromethyl)benzamide], for which the EC50 was 126 ± 12.1 nM.

Consider `CCN1C(=O)[C@@H](NC(=O)c2cccc(C(F)(F)F)c2)[C@@H](c2ccc(F)cc2)c2c(CN3CCN(CC(F)(F)F)CC3)nn(-c3ccccc3)c21` [RG-0014150, N-[(4S,5S)-7-ethyl-4-(4-fluorophenyl)-6-oxo-1-phenyl-3-{[4-(2,2,2-trifluoroethyl)piperazin-1-yl]methyl}-1H,4H,5H,6H,7H-pyrazolo[3,4-b]pyridin-5-yl]-3-(trifluoromethyl)benzamide], for which the EC50 was 173 ± 21.9 nM.

`CCN1C(=O)[C@@H](NC(=O)c2ccc3c(ccn3C)c2)[C@@H](c2ccc(F)cc2)c2c(C)nn(-c3ccccc3)c21` [RG-0014151, N-[(4S,5S)-7-ethyl-4-(4-fluorophenyl)-3-methyl-6-oxo-1-phenyl-1H,4H,5H,6H,7H-pyrazolo[3,4-b]pyridin-5-yl]-1-methyl-1H-indole-5-carboxamide]: the EC50 came out at 3230 ± 806 nM.

Take `CCN1C(=O)[C@@H](NC(=O)c2cccc(C(F)(F)F)c2)[C@@H](c2ccc(F)cc2)c2c(CN3CCCC3)nn(-c3ccccc3)c21` [RG-0014154, N-[(4S,5S)-7-ethyl-4-(4-fluorophenyl)-6-oxo-1-phenyl-3-[(pyrrolidin-1-yl)methyl]-1H,4H,5H,6H,7H-pyrazolo[3,4-b]pyridin-5-yl]-3-(trifluoromethyl)benzamide]: the EC50 is 83.5 ± 9.39 nM.

With `CCN1C(=O)[C@@H](NC(=O)c2cccc(C(F)(F)F)c2)[C@@H](c2ccc(F)cc2)c2c(CNC(=O)CCCC[C@@H]3SC[C@@H]4NC(=O)N[C@@H]43)nn(-c3ccccc3)c21` [RG-0014155, N-[(4S,5S)-3-({5-[(3aS,4S,6aR)-2-oxo-hexahydro-1H-thieno[3,4-d]imidazol-4-yl]pentanamido}methyl)-7-ethyl-4-(4-fluorophenyl)-6-oxo-1-phenyl-1H,4H,5H,6H,7H-pyrazolo[3,4-b]pyridin-5-yl]-3-(trifluoromethyl)benzamide], the EC50 is 123 ± 22.5 nM.

Turning to `CC/C=C/C(=O)N[C@@H]1C(=O)N(CC)c2c(c(C)nn2-c2ccccc2)[C@@H]1c1ccc(F)cc1` [RG-0014157, (2E)-N-[(4S,5S)-7-ethyl-4-(4-fluorophenyl)-3-methyl-6-oxo-1-phenyl-1H,4H,5H,6H,7H-pyrazolo[3,4-b]pyridin-5-yl]pent-2-enamide], the EC50 was over 30700 nM.

In the case of `CCN1C(=O)[C@@H](NC(=O)c2ccc3ncsc3c2)[C@@H](c2ccc(F)cc2)c2c(C)nn(-c3ccccc3)c21` [RG-0014158, N-[(4S,5S)-7-ethyl-4-(4-fluorophenyl)-3-methyl-6-oxo-1-phenyl-1H,4H,5H,6H,7H-pyrazolo[3,4-b]pyridin-5-yl]-1,3-benzothiazole-6-carboxamide], the EC50 worked out at 6310 ± 465 nM.

Regarding `CCN1C(=O)[C@@H](NC(=O)c2cccc(C(F)(F)F)c2)[C@@H](c2ccc(F)cc2)c2c(CNC(=O)CCOCCOCCNC(=O)CCCC[C@@H]3SC[C@@H]4NC(=O)N[C@@H]43)nn(-c3ccccc3)c21` [RG-0014159, N-[(4S,5S)-3-({3-[2-(2-{5-[(3aS,4S,6aR)-2-oxo-hexahydro-1H-thieno[3,4-d]imidazol-4-yl]pentanamido}ethoxy)ethoxy]propanamido}methyl)-7-ethyl-4-(4-fluorophenyl)-6-oxo-1-phenyl-1H,4H,5H,6H,7H-pyrazolo[3,4-b]pyridin-5-yl]-3-(trifluoromethyl)benzamide], the EC50 was found to be 89.6 ± 10.9 nM.

`CCN1C(=O)[C@@H](NC(=O)c2cccc(C(F)(F)F)c2)[C@@H](c2ccc(F)cc2)c2c(CNS(=O)(=O)NC(=O)OC(C)(C)C)nn(-c3ccccc3)c21` [RG-0014160, tert-butyl N-({[(4S,5S)-7-ethyl-4-(4-fluorophenyl)-6-oxo-1-phenyl-5-[3-(trifluoromethyl)benzamido]-1H,4H,5H,6H,7H-pyrazolo[3,4-b]pyridin-3-yl]methyl}sulfamoyl)carbamate]: the EC50 came out at 194 ± 19.9 nM.

For `CCN1C(=O)[C@@H](NC(=O)c2cccc(C(F)(F)F)c2)[C@@H](c2ccc(F)cc2)c2c(CNS(N)(=O)=O)nn(-c3ccccc3)c21` [RG-0014161, N-[(4S,5S)-7-ethyl-4-(4-fluorophenyl)-6-oxo-1-phenyl-3-[(sulfamoylamino)methyl]-1H,4H,5H,6H,7H-pyrazolo[3,4-b]pyridin-5-yl]-3-(trifluoromethyl)benzamide], the EC50 is 145 ± 26.2 nM.

Turning to `Cc1nn(-c2ccccc2)c2c1[C@H](c1ccc(F)cc1)[C@H](NC(=O)c1cccc(C(F)(F)F)c1)C(=O)N2CCNC(=O)OC(C)(C)C` [RG-0014162, tert-butyl N-{2-[(4S,5S)-4-(4-fluorophenyl)-3-methyl-6-oxo-1-phenyl-5-[3-(trifluoromethyl)benzamido]-1H,4H,5H,6H,7H-pyrazolo[3,4-b]pyridin-7-yl]ethyl}carbamate], the 50% effective concentration (EC50) was over 13600 nM.

For `Cc1nn(-c2ccccc2)c2c1[C@H](c1ccc(F)cc1)[C@H](NC(=O)c1cccc(C(F)(F)F)c1)C(=O)N2CCO[Si](C)(C)C(C)(C)C` [RG-0014164, N-[(4S,5S)-7-{2-[(tert-butyldimethylsilyl)oxy]ethyl}-4-(4-fluorophenyl)-3-methyl-6-oxo-1-phenyl-1H,4H,5H,6H,7H-pyrazolo[3,4-b]pyridin-5-yl]-3-(trifluoromethyl)benzamide], the concentration giving a half-maximal response (EC50) is over 36500 nM.

With `CCN1C(=O)[C@@H](NC(=O)c2cccc(C)c2F)[C@@H](c2ccc(F)cc2)c2c(C)nn(-c3ccccc3)c21` [RG-0014165, N-[(4S,5S)-7-ethyl-4-(4-fluorophenyl)-3-methyl-6-oxo-1-phenyl-1H,4H,5H,6H,7H-pyrazolo[3,4-b]pyridin-5-yl]-2-fluoro-3-methylbenzamide], the EC50 turned out to be 541 ± 68.1 nM.

With `CCN1C(=O)[C@@H](NC(=O)c2cccc(C(C)C)c2)[C@@H](c2ccc(F)cc2)c2c(C)nn(-c3ccccc3)c21` [RG-0014166, N-[(4S,5S)-7-ethyl-4-(4-fluorophenyl)-3-methyl-6-oxo-1-phenyl-1H,4H,5H,6H,7H-pyrazolo[3,4-b]pyridin-5-yl]-3-(propan-2-yl)benzamide], the EC50 was determined as 473 ± 70.7 nM.

As to `CCN1C(=O)[C@@H](NC(=O)c2ccc(F)c(C)c2)[C@@H](c2ccc(F)cc2)c2c(C)nn(-c3ccccc3)c21` [RG-0014168, N-[(4S,5S)-7-ethyl-4-(4-fluorophenyl)-3-methyl-6-oxo-1-phenyl-1H,4H,5H,6H,7H-pyrazolo[3,4-b]pyridin-5-yl]-4-fluoro-3-methylbenzamide], the EC50 stood at 1690 ± 115 nM.

For a further assay, the target named is T1, DCN1.
Assay: not given
To be noted: class symbols H, M, M-L, legend not given; cited from earlier work.
Turning to `COc1ccc([C@@H]2c3c(C)nn(C)c3NC(=O)[C@H]2NC(=O)c2cccc(C)c2)cc1F` (racemic) [SJ000398158], the “Pulse-Chase inh @ 30 uM” value is reported as “M-L”.

As for `Cc1nn(C)c2c1[C@@H](c1ccc(F)c(F)c1)[C@H](NC(=O)c1ccc(Cl)cc1)C(=O)N2` (racemic) [SJ000399589], the “Pulse-Chase inh @ 30 uM” value was “M-L”.
